{"source": "BigSolDB 2.1", "data": [{"smiles": "NC12CC3CC(C1)CC(O)(C3)C2", "values": [{"measurement": "solubility (mole fraction)", "setting": "in THF, 278.15 K", "result": 0.0201}, {"measurement": "solubility (mole fraction)", "setting": "in THF, 283.15 K", "result": 0.0213}, {"measurement": "solubility (mole fraction)", "setting": "in THF, 288.15 K", "result": 0.0229}, {"measurement": "solubility (mole fraction)", "setting": "in THF, 293.15 K", "result": 0.0247}, {"measurement": "solubility (mole fraction)", "setting": "in THF, 298.15 K", "result": 0.0269}, {"measurement": "solubility (mole fraction)", "setting": "in THF, 303.15 K", "result": 0.0294}, {"measurement": "solubility (mole fraction)", "setting": "in THF, 308.15 K", "result": 0.0323}, {"measurement": "solubility (mole fraction)", "setting": "in THF, 313.15 K", "result": 0.0356}, {"measurement": "solubility (mole fraction)", "setting": "in THF, 318.15 K", "result": 0.0394}, {"measurement": "solubility (mole fraction)", "setting": "in THF, 323.15 K", "result": 0.0439}, {"measurement": "solubility (mole fraction)", "setting": "in THF, 328.15 K", "result": 0.049}, {"measurement": "solubility (mole fraction)", "setting": "in ethanol, 278.15 K", "result": 0.0608}, {"measurement": "solubility (mole fraction)", "setting": "in ethanol, 283.15 K", "result": 0.0768}, {"measurement": "solubility (mole fraction)", "setting": "in ethanol, 288.15 K", "result": 0.0974}, {"measurement": "solubility (mole fraction)", "setting": "in ethanol, 293.15 K", "result": 0.123}, {"measurement": "solubility (mole fraction)", "setting": "in ethanol, 298.15 K", "result": 0.151}, {"measurement": "solubility (mole fraction)", "setting": "in ethanol, 303.15 K", "result": 0.183}, {"measurement": "solubility (mole fraction)", "setting": "in ethanol, 308.15 K", "result": 0.219}, {"measurement": "solubility (mole fraction)", "setting": "in ethanol, 313.15 K", "result": 0.256}, {"measurement": "solubility (mole fraction)", "setting": "in ethanol, 318.15 K", "result": 0.296}, {"measurement": "solubility (mole fraction)", "setting": "in ethanol, 323.15 K", "result": 0.337}, {"measurement": "solubility (mole fraction)", "setting": "in ethanol, 328.15 K", "result": 0.389}, {"measurement": "solubility (mole fraction)", "setting": "in methanol, 278.15 K", "result": 0.0136}, {"measurement": "solubility (mole fraction)", "setting": "in methanol, 283.15 K", "result": 0.0176}, {"measurement": "solubility (mole fraction)", "setting": "in methanol, 288.15 K", "result": 0.0209}, {"measurement": "solubility (mole fraction)", "setting": "in methanol, 293.15 K", "result": 0.0253}, {"measurement": "solubility (mole fraction)", "setting": "in methanol, 298.15 K", "result": 0.0297}, {"measurement": "solubility (mole fraction)", "setting": "in methanol, 303.15 K", "result": 0.0352}, {"measurement": "solubility (mole fraction)", "setting": "in methanol, 308.15 K", "result": 0.0422}, {"measurement": "solubility (mole fraction)", "setting": "in methanol, 313.15 K", "result": 0.0509}, {"measurement": "solubility (mole fraction)", "setting": "in methanol, 318.15 K", "result": 0.0618}, {"measurement": "solubility (mole fraction)", "setting": "in methanol, 323.15 K", "result": 0.0754}, {"measurement": "solubility (mole fraction)", "setting": "in methanol, 328.15 K", "result": 0.0926}, {"measurement": "solubility (mole fraction)", "setting": "in n-butanol, 278.15 K", "result": 0.0626}, {"measurement": "solubility (mole fraction)", "setting": "in n-butanol, 283.15 K", "result": 0.0657}, {"measurement": "solubility (mole fraction)", "setting": "in n-butanol, 288.15 K", "result": 0.0679}, {"measurement": "solubility (mole fraction)", "setting": "in n-butanol, 293.15 K", "result": 0.0704}, {"measurement": "solubility (mole fraction)", "setting": "in n-butanol, 298.15 K", "result": 0.0736}, {"measurement": "solubility (mole fraction)", "setting": "in n-butanol, 303.15 K", "result": 0.0761}, {"measurement": "solubility (mole fraction)", "setting": "in n-butanol, 308.15 K", "result": 0.0799}, {"measurement": "solubility (mole fraction)", "setting": "in n-butanol, 313.15 K", "result": 0.0827}, {"measurement": "solubility (mole fraction)", "setting": "in n-butanol, 318.15 K", "result": 0.0868}, {"measurement": "solubility (mole fraction)", "setting": "in n-butanol, 323.15 K", "result": 0.0904}, {"measurement": "solubility (mole fraction)", "setting": "in n-butanol, 328.15 K", "result": 0.0943}, {"measurement": "solubility (mole fraction)", "setting": "in n-propanol, 278.15 K", "result": 0.133}, {"measurement": "solubility (mole fraction)", "setting": "in n-propanol, 283.15 K", "result": 0.145}, {"measurement": "solubility (mole fraction)", "setting": "in n-propanol, 288.15 K", "result": 0.157}, {"measurement": "solubility (mole fraction)", "setting": "in n-propanol, 293.15 K", "result": 0.171}, {"measurement": "solubility (mole fraction)", "setting": "in n-propanol, 298.15 K", "result": 0.185}, {"measurement": "solubility (mole fraction)", "setting": "in n-propanol, 303.15 K", "result": 0.2}, {"measurement": "solubility (mole fraction)", "setting": "in n-propanol, 308.15 K", "result": 0.216}, {"measurement": "solubility (mole fraction)", "setting": "in n-propanol, 313.15 K", "result": 0.234}, {"measurement": "solubility (mole fraction)", "setting": "in n-propanol, 318.15 K", "result": 0.252}, {"measurement": "solubility (mole fraction)", "setting": "in n-propanol, 323.15 K", "result": 0.272}, {"measurement": "solubility (mole fraction)", "setting": "in n-propanol, 328.15 K", "result": 0.293}, {"measurement": "solubility (mole fraction)", "setting": "in water, 278.15 K", "result": 0.0125}, {"measurement": "solubility (mole fraction)", "setting": "in water, 283.15 K", "result": 0.0146}, {"measurement": "solubility (mole fraction)", "setting": "in water, 288.15 K", "result": 0.0173}, {"measurement": "solubility (mole fraction)", "setting": "in water, 293.15 K", "result": 0.0207}, {"measurement": "solubility (mole fraction)", "setting": "in water, 298.15 K", "result": 0.0233}, {"measurement": "solubility (mole fraction)", "setting": "in water, 303.15 K", "result": 0.0266}, {"measurement": "solubility (mole fraction)", "setting": "in water, 308.15 K", "result": 0.0306}, {"measurement": "solubility (mole fraction)", "setting": "in water, 313.15 K", "result": 0.0354}, {"measurement": "solubility (mole fraction)", "setting": "in water, 318.15 K", "result": 0.0413}, {"measurement": "solubility (mole fraction)", "setting": "in water, 323.15 K", "result": 0.0486}, {"measurement": "solubility (mole fraction)", "setting": "in water, 328.15 K", "result": 0.0575}]}]}
